Paper PMC8400968, “Design, Synthesis, Biological Evaluation, and Computational Studies of Novel Tri-Aryl Imidazole-Benzene Sulfonamide Hybrids as Promising Selective Carbonic Anhydrase IX and XII Inhibitors” (Molecules, 2021)
Where “and” joins values, the source holds several entries; their conditions need not be identical. Equal values may be shown once. Read-outs that look alike come from different tables or passages of the source.

Assays:
[1] = molecular target: T1, hCA XII (Homo sapiens, UniProt O43570); test: stopped-flow CO2 hydrase assay, hCA XII; assay type: biochemical
T1 construct: made in house
Experimental: Newly synthesized hybrids 5a–n were tested for their inhibitory activity against four physiologically and pharmacologically CA isoforms, namely cytosolic hCA I and II, and tumor-associated isoforms hCA IX and XII, using a CO2 hydrase stop-flow assay. Acetazolamide (AAZ), clinically used sulphonamide, was used as the standard drug. […]. The ortho substitution in the aryl moiety appears to correlate with higher inhibitory effects against both hCA IX and XII. […] […]. The ability of imidazoles 5a–n toward inhibition of hCA I, II (cytosolic) as well as hCA IX and XII (transmembrane, tumor-associated isoforms) using stopped-flow CO2 hydrase assay was evaluated. See Appendix A.
The carbonic anhydrase catalyzed CO2 hydration actions for all new compounds herein reported have were assayed utilizing an instrument of Applied Photophysics stopped-flow. The enzymes are recombinant proteins prepared in our lab. […]. The uncatalyzed rates were determined in the same manner and subtracted from the total observed rates. Stock solutions of inhibitor (0.1 mM) were prepared in distilled-deionized water and dilutions up to 0.01 nM were done thereafter with the assay buffer. Inhibitor and enzyme solutions were preincubated together for 15 min at room temperature prior to assay, in order to allow for the formation of the E-I complex. The inhibition constants were obtained by non-linear least-squares methods using PRISM 3 and the Cheng-Prusoff equation, and represent the mean from at least three different determinations.

[2] = molecular target: T2, hCA I (Homo sapiens, UniProt P00915); test: stopped-flow CO2 hydrase assay, hCA I; assay type: biochemical
T2 construct: made in house
Experimental: (§1) Newly synthesized hybrids 5a–n were tested for their inhibitory activity against four physiologically and pharmacologically CA isoforms, namely cytosolic hCA I and II, and tumor-associated isoforms hCA IX and XII, using a CO2 hydrase stop-flow assay. Acetazolamide (AAZ), clinically used sulphonamide, was used as the standard drug. […] The ability of imidazoles 5a–n toward inhibition of hCA I, II (cytosolic) as well as hCA IX and XII (transmembrane, tumor-associated isoforms) using stopped-flow CO2 hydrase assay was evaluated. See Appendix A.
(§2) The enzymes are recombinant proteins prepared in our lab. […] The uncatalyzed rates were determined in the same manner and subtracted from the total observed rates. Stock solutions of inhibitor (0.1 mM) were prepared in distilled-deionized water and dilutions up to 0.01 nM were done thereafter with the assay buffer. Inhibitor and enzyme solutions were preincubated together for 15 min at room temperature prior to assay, in order to allow for the formation of the E-I complex. The inhibition constants were obtained by non-linear least-squares methods using PRISM 3 and the Cheng-Prusoff equation, and represent the mean from at least three different determinations.

[3] = molecular target: T3, hCA IX (Homo sapiens, UniProt Q16790); test: stopped-flow CO2 hydrase assay, hCA IX; assay type: biochemical; conditions: for IC50: quoted in docking discussion, read-out: IC50 CA-IX (in vitro inhibitory activity quoted in docking study); for Selectivity Ratio hCA XII/ hCA IX: selectivity for hCA IX over hCA XII; for Ki: stopped-flow CO2 hydrase assay; for fold lower inhibitory activity on hCA IX than the ortho-derivative: 5f vs 5e, 5h vs 5g
T3 construct: made in house
Experimental: as §1, §2

[4] = molecular target: T4, hCA II (Homo sapiens, UniProt P00918); test: stopped-flow CO2 hydrase assay, hCA II; assay type: biochemical
T4 construct: made in house
Experimental: as §1, §2

[5] = tested on: four human cancer cell lines (Panc-1, MCF-7, HT-29, A-549); test: Antiproliferative activity, MTT assay, average of the four cell lines; assay type: cell-based; conditions: for IC50: average of A-549, MCF-7, Panc-1, HT-29; for GI50: four cancer cell lines, read-out: GI50
Experimental: (§3) The antiproliferative activity of 5b, 5d, 5e, 5g, 5j and 5n against four human cancer cell lines including pancreatic cancer cell line (Panc-1), breast cancer cell line (MCF-7), colon cancer cell line (HT-29) and epithelial cancer cell line (A-549) using MTT assay and doxorubicin was applied as the reference compound [22, 23]. Graph Pad Prism software (Graph Pad Software, San Diego, CA, USA) was used to calculate the median inhibition concentration (IC50) and results are recorded in Table 2.
(§4) The antiproliferative activity of 5b, 5d, 5e, 5g, 5j and 5n against four human cancer cell lines including pancreatic cancer cell line (Panc-1), breast cancer cell line (MCF-7), colon cancer cell line (HT-29) and epithelial cancer cell line (A-549) using MTT assay and doxorubicin was applied as the reference compound [22, 23]. See Appendix A.
(§5) To explore the antiproliferative potential of compounds MTT assay was performed according to previously reported procedure using different cell lines To explore the antiproliferative potential of compounds propidium iodide fluorescence assay was performed using different cell lines. To calculate the total nuclear DNA, a fluorescent dye (propidium iodide, PI) is used which can attach to the DNA, thus offering a quick and precise technique. PI cannot pass through the cell membrane and its signal intensity can be considered as directly proportional to quantity of cellular DNA. Cells whose cell membranes are damaged or have changed permeability are counted as dead ones. The assay was performed by seeding the cells of different cell lines at a density of 3000–7500 cells/well (in 200 µL medium) in culture plates followed by incubation for 24 h at 37 °C in humidified 5% CO2/95% air atmospheric conditions. The medium was removed; the compounds were added to the plates at 10 µM concentrations (in 0.1% DMSO) in triplicates, followed by incubation for 48 h. DMSO (0.1%) was used as control. After incubation, medium was removed followed by the addition of PI (25 µL, 50µg/mL in water/medium) to each well of the plates. At −80 °C, the plates were allowed to freeze for 24 h, followed by thawing at 25 °C. A fluorometer (Polar-Star BMG Tech, Offenburg, Germany) was used to record the readings at excitation and emission wavelengths of 530 and 620 nm for each well. The percentage cytotoxicity of compounds was calculated using the following formula: %Cytotoxicity=(Ac−Atc)/Ac×100 where Atc = Absorbance of treated cells and Ac = Absorbance of control. Erlotinib was used as positive control in the assay.

[6] = tested on: pancreatic cancer cell line (Panc-1); test: Antiproliferative activity, MTT assay, Panc-1; assay type: cell-based; conditions: Homo sapiens; Panc-1, MTT; read-out: Antiproliferative Activity IC50 ± SEM Panc-1
Experimental: as §3, §4, §5

[7] = tested on: colon cancer cell line (HT-29); test: Antiproliferative activity, MTT assay, HT-29; assay type: cell-based; conditions: Homo sapiens; HT-29, MTT; read-out: Antiproliferative Activity IC50 ± SEM HT-29
Experimental: as §3, §4, §5

[8] = tested on: breast cancer cell line (MCF-7); test: Antiproliferative activity, MTT assay, MCF-7; assay type: cell-based; conditions: Homo sapiens, MCF7; MCF-7, MTT; read-out: Antiproliferative Activity IC50 ± SEM MCF-7
Experimental: as §3, §4, §5

[9] = tested on: epithelial cancer cell line (A-549); test: Antiproliferative activity, MTT assay, A-549; assay type: cell-based; conditions: Homo sapiens, A549; A-549, MTT; read-out: Antiproliferative Activity IC50 ± SEM A-549
Experimental: as §3, §4, §5

[10] = Cell viability assay (MTT); assay type: cell-based; conditions: human, MCF-10A mammary gland epithelial cells, MCF-10A cells, incubated 4 days
Experimental: Cell viability assay was carried out using human mammary gland epithelial cell line (MCF-10A). MCF-10A cells were incubated with compounds 5b, 5d, 5e, 5g, 5j and 5n for 4 days and MTT assay was used to determine the viability of cells. See Appendix A.
MTT assay was carried out to study the effect of compounds on mammary epithelial cells (MCF-10A). The medium in which cells were propagated contained Dulbecco’s modified Eagle’s medium (DMEM)/Ham’s F-12 medium (1:1) supplemented with epidermal growth factor (20 ng/mL), hydrocortisone (500 ng/mL), insulin (10 μg/mL), 2 mM glutamine and 10% fetal calf serum. After every 2–3 days, the cells were passaged using trypsin ethylenediamine tetra acetic acid (EDTA). The cells were seeded at a density of 10^4 cells mL^−1 in flat-bottomed culture plates containing 96 wells each. After 24 h, medium was removed from the plates and the compounds in (in 0.1% DMSO) were added (in 200 μL medium to yield a final concentration of 0.1% v/v) to the wells of plates. A single compound was designated with four wells followed by incubation of plates for 96 h at 37 °C. After incubation, medium was removed completely from the plates followed by addition of MTT (0.4 mg/mL in medium) to each well and subsequent incubation of plates for 3 h. MTT (along with the medium) was removed and DMSO (150 μL) was added to each well of the culture plates, followed by vortexing and subsequent measurement of absorbance (at 540 nm) using microplate reader. The data are shown as percentage inhibition of proliferation in comparison with controls containing 0.1% DMSO.

[11] = stopped-flow CO2 hydrase assay, read-out: Ki hCA I

T1 sequence (O43570 25-354): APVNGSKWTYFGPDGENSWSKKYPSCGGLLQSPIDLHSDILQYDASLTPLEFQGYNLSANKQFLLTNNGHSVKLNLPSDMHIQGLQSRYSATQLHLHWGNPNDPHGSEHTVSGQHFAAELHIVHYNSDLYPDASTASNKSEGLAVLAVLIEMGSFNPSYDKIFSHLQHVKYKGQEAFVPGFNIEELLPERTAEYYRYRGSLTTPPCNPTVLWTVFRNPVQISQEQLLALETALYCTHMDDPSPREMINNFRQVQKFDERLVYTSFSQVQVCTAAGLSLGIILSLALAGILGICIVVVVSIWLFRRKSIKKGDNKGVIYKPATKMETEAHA
T2 sequence (P00915 whole entry): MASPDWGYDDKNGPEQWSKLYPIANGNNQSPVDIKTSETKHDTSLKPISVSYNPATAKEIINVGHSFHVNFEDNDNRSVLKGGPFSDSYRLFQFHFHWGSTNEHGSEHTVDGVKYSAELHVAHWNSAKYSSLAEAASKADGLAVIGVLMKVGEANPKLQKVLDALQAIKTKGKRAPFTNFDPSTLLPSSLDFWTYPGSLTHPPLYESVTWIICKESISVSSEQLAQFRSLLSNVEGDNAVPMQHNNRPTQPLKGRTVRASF

Compound | melting point [°C] | Ki [1] [µM] | Ki [2] [µM] | IC50 [3] [µM] | Selectivity Ratio hCA XII/ hCA IX [3] | Ki [3] | Ki [4] [µM] | IC50 [5] [µM] | GI50 [5] [µM] | IC50 [6] [µM] | IC50 [7] [µM] | IC50 [8] [µM] | IC50 [9] [µM] | Ki [2, 11] [µM] | viability at 96 h [10] [%] | fold lower inhibitory activity on hCA IX than the ortho-derivative [3] [fold]
CN(C)c1ccc(-c2nc(-c3ccccc3)c(-c3ccccc3)n2-c2ccc(S(N)(=O)=O)cc2)cc1 [Compound 5k, 4-(2-(4-(Dimethylamino)phenyl)-4,5-diphenyl-1H-imidazol-1-yl)benzene sulfonamide] | 224 to 226 | 6.8 | > 100 | 9.3 | 0.70 | 9.3 µM | > 100 | – | – | – | – | – | – | – | – | –
COc1cccc2c1C(=O)c1c(O)c3c(c(O)c1C2=O)C[C@@](O)(C(=O)CO)C[C@@H]3O[C@H]1C[C@H](N)[C@H](O)[C@H](C)O1 [Doxorubicin, reference compound] | – | – | – | – | – | – | – | 1.1 | 1.1 | 1.4 ± 0.6 | 1 ± 0.8 | 0.9 ± 0.6 | 1.2 ± 0.8 | – | – | –
COc1ccccc1-c1nc(-c2ccccc2)c(-c2ccccc2)n1-c1ccc(S(N)(=O)=O)cc1 [Compound 5g, 4-(2-(2-Methoxyphenyl)-4,5-diphenyl-1H-imidazol-1-yl)benzene sulfonamide] | – | 3.7 | – | 0.32 | 12.00 | 0.32 µM and 0.3 µM | > 100 | 2.3 | 2.3 | 2.2 ± 0.4 | 2.4 ± 0.4 | 2.1 ± 0.2 | 2.4 ± 0.5 | > 100 | 90 | –
NS(=O)(=O)c1ccc(-n2c(-c3ccc(O)cc3)nc(-c3ccccc3)c2-c2ccccc2)cc1 [Compound 5f, 4-(2-(4-Hydroxyphenyl)-4,5-diphenyl-1H-imidazol-1-yl)benzene sulfonamide] | – | 7.1 | > 100 | – | 0.90 | 8.4 µM | > 100 | – | – | – | – | – | – | – | – | 10
NS(=O)(=O)c1ccc(-n2c(-c3ccc(C(=O)O)cc3)nc(-c3ccccc3)c2-c2ccccc2)cc1 [Compound 5l, 4-(4,5-Diphenyl-1-(4-sulfamoylphenyl)-1H-imidazol-2-yl)benzoic acid] | 200 to 202 | 6.8 | > 100 | – | 0.80 | 8.5 µM | > 100 | – | – | – | – | – | – | – | – | –
NS(=O)(=O)c1ccc(-n2c(-c3ccccc3)nc(-c3ccccc3)c2-c2ccccc2)cc1 [Compound 5a, 4-(2,4,5-Triphenyl-1H-imidazol-1-yl)benzene sulfonamide] | 210 to 212 | 5.5 | > 100 | – | 1.90 | 2.9 µM | > 100 | – | – | – | – | – | – | – | – | –
NS(=O)(=O)c1ccc(-n2c(-c3ccc(Cl)cc3)nc(-c3ccccc3)c2-c2ccccc2)cc1 [Compound 5c, 4-(2-(4-Chlorophenyl)-4,5-diphenyl-1H-imidazol-1-yl)benzene sulfonamide] | 230 to 232 | 3.7 | > 100 | – | 0.45 | 8.2 µM | > 100 | – | – | – | – | – | – | – | – | –
COc1ccc(-c2nc(-c3ccccc3)c(-c3ccccc3)n2-c2ccc(S(N)(=O)=O)cc2)cc1OC [Compound 5i, 4-(2-(3,4-Dimethoxyphenyl)-4,5-diphenyl-1H-imidazol-1-yl)benzene sulfonamide] | 260 to 262 | 6.6 | > 100 | 9.2 | 0.70 | 9.2 µM | > 100 | – | – | – | – | – | – | – | – | –
CCOC(=O)c1ccc(-c2nc(-c3ccccc3)c(-c3ccccc3)n2-c2ccc(S(N)(=O)=O)cc2)cc1 [Compound 5m, Ethyl 4-(4,5-diphenyl-1-(4-sulfamoylphenyl)-1H-imidazol-2-yl)benzoate] | 216 to 218 | 6.2 | – | – | 0.70 | 8.8 µM | > 100 | – | – | – | – | – | – | > 100 | – | –
COc1ccc(-c2nc(-c3ccccc3)c(-c3ccccc3)n2-c2ccc(S(N)(=O)=O)cc2)cc1 [Compound 5h, 4-(2-(4-Methoxyphenyl)-4,5-diphenyl-1H-imidazol-1-yl)benzene sulfonamide] | 235 to 237 | 3.9 | > 100 | – | 0.50 | 7.4 µM | > 100 | – | – | – | – | – | – | – | – | 22
